Measurements from ChEMBL document CHEMBL3885861, “Open TG-GATES”.

Species: Rattus norvegicus
Assay: Open TG-GATES - Regimen: Daily Repeat
Assay type: toxicity, organism-based, Sprague-Dawley
Set-up: regimen Daily Repeat, gender Male, age 6 weeks
Settings: in vivo, po, route gavage; for Eos / Fbg / Ht / Lym / MCHC / MCV / Mono / Neu / RBC / Ret / WBC / APTT / Bas / PT / Hb: tissue Blood; for KIDNEY_L / KIDNEY_R / KIDNEY_TOTAL: tissue Kidney; for ALP / ALT / AST / BUN / CRE / Ca / Cl / DBIL / GLC / IP / K / PL / RALB / TBIL / TC / TG / TP / gamma-GTP: tissue Plasma
[1] = 60 mg/kg, 72 h, dose level Middle, time 3 day
[2] = 60 mg/kg, […], dose level Middle, time 7 day
[3] = 60 mg/kg, […], dose level Middle, time 14 day
[4] = 60 mg/kg, […], dose level Middle, time 28 day
[5] = 200 mg/kg, 72 h, dose level High, time 3 day
[6] = 200 mg/kg, […], dose level High, time 7 day
[7] = 200 mg/kg, […], dose level High, time 14 day
[8] = 200 mg/kg, […], dose level High, time 28 day

Structure (SMILES): CCCCC1C(=O)N(c2ccccc2)N(c2ccccc2)C1=O [PHENYLBUTAZONE]
- Eos [1]: 1.2%
- Fbg [1]: 234.2 mg/dL
- Ht [1]: 42.3%
- Lym [1]: 76.2%
- MCHC [1]: 33.5%
- MCV [1]: 63.4 fL
- Mono [1]: 6.4%
- Neu [1]: 16.4%
- RBC [1]: 667.4 x10_4/ul
- Ret [1]: 6.7%
- WBC [1]: 119.1 x10_2/uL
- KIDNEY_L [1]: 1 g
- KIDNEY_R [1]: 1 g
- KIDNEY_TOTAL [1]: 2 g
- ALP [1]: 957.4 IU/L
- ALT [1]: 35.6 IU/L
- AST [1]: 57.6 IU/L
- BUN [1]: 18.4 mg/dL
- CRE [1]: 0.6 mg/dL
- Ca [1]: 10.5 mg/dL
- Cl [1]: 105.6 meq/L
- DBIL [1]: 0.006 mg/dL
- GLC [1]: 199.4 mg/dL
- IP [1]: 7.9 mg/dL
- K [1]: 4.7 meq/L
- PL [1]: 167.6 mg/dL
- RALB [1]: 4 g/dL
- TBIL [1]: 0.3 mg/dL
- TC [1]: 92 mg/dL
- TG [1]: 136.8 mg/dL
- TP [1]: 6.1 g/dL
- gamma-GTP [1]: 1 IU/L
- TERMINAL_BW [2]: 272.5 g
- TERMINAL_BW [3]: 313.9 g
- TERMINAL_BW [4]: 407.1 g
- APTT [2]: 16.2 s
- Bas [2]: 0%
- Eos [2]: 0.4%
- Fbg [2]: 231 mg/dL
- Ht [2]: 42.2%
- Lym [2]: 86.2%
- MCHC [2]: 33.6%
- MCV [2]: 64.2 fL
- Mono [2]: 4.2%
- Neu [2]: 9%
- PT [2]: 11.7 s
- RBC [2]: 657.4 x10_4/ul
- Ret [2]: 5.4%
- WBC [2]: 186.6 x10_2/uL
- APTT [3]: 16.5 s
- Bas [3]: 0%
- Eos [3]: 0.6%
- Fbg [3]: 227.6 mg/dL
- Hb [3]: 14.9 g/dL
- Ht [3]: 44.5%
- Lym [3]: 86%
- MCHC [3]: 33.5%
- MCV [3]: 60.4 fL
- Mono [3]: 4%
- Neu [3]: 9.4%
- RBC [3]: 736.4 x10_4/ul
- Ret [3]: 4.4%
- WBC [3]: 167.1 x10_2/uL
- APTT [4]: 15.9 s
- Bas [4]: 0%
- Eos [4]: 0.6%
- Fbg [4]: 246.5 mg/dL
- Hb [4]: 15.3 g/dL
- Ht [4]: 45.9%
- Lym [4]: 86%
- MCHC [4]: 33.4%
- MCV [4]: 58.4 fL
- Mono [4]: 3%
- RBC [4]: 786.6 x10_4/ul
- Ret [4]: 2.6%
- WBC [4]: 129.4 x10_2/uL
- KIDNEY_L [2]: 1.1 g
- KIDNEY_R [2]: 1.1 g
- KIDNEY_TOTAL [2]: 2.2 g
- KIDNEY_L [3]: 1.3 g
- KIDNEY_R [3]: 1.3 g
- KIDNEY_TOTAL [3]: 2.6 g
- KIDNEY_L [4]: 1.4 g
- KIDNEY_R [4]: 1.4 g
- KIDNEY_TOTAL [4]: 2.9 g
- ALP [2]: 845.8 IU/L
- ALT [2]: 37.4 IU/L
- AST [2]: 65 IU/L
- BUN [2]: 20.8 mg/dL
- CRE [2]: 0.5 mg/dL
- Ca [2]: 10.7 mg/dL
- Cl [2]: 106.6 meq/L
- DBIL [2]: 0 mg/dL
- GLC [2]: 195.8 mg/dL
- IP [2]: 8.5 mg/dL
- K [2]: 5 meq/L
- PL [2]: 161 mg/dL
- RALB [2]: 4 g/dL
- TBIL [2]: 0.3 mg/dL
- TC [2]: 79 mg/dL
- TG [2]: 166.8 mg/dL
- TP [2]: 6.7 g/dL
- gamma-GTP [2]: 1.4 IU/L
- ALP [3]: 877.8 IU/L
- ALT [3]: 36.4 IU/L
- AST [3]: 65 IU/L
- BUN [3]: 20.8 mg/dL
- CRE [3]: 0.6 mg/dL
- Ca [3]: 10.6 mg/dL
- Cl [3]: 107 meq/L
- DBIL [3]: 0.002 mg/dL
- GLC [3]: 189.4 mg/dL
- IP [3]: 8.3 mg/dL
- K [3]: 4.5 meq/L
- RALB [3]: 4 g/dL
- TBIL [3]: 0.3 mg/dL
- TC [3]: 64 mg/dL
- TG [3]: 138 mg/dL
- TP [3]: 6.3 g/dL
- gamma-GTP [3]: 1.8 IU/L
- ALP [4]: 605.8 IU/L
- ALT [4]: 44.2 IU/L
- AST [4]: 70.8 IU/L
- BUN [4]: 22.2 mg/dL
- CRE [4]: 0.6 mg/dL
- Ca [4]: 10.7 mg/dL
- Cl [4]: 105.2 meq/L
- DBIL [4]: 0.006 mg/dL
- GLC [4]: 189.8 mg/dL
- IP [4]: 7.7 mg/dL
- K [4]: 4.6 meq/L
- PL [4]: 161.8 mg/dL
- RALB [4]: 4.3 g/dL
- TBIL [4]: 0.4 mg/dL
- TC [4]: 76.4 mg/dL
- TG [4]: 280.8 mg/dL
- TP [4]: 6.8 g/dL
- gamma-GTP [4]: 1.2 IU/L
- TERMINAL_BW [5]: 224.8 g
- APTT [5]: 17.7 s
- Bas [5]: 0%
- Eos [5]: 1%
- Fbg [5]: 309.8 mg/dL
- Hb [5]: 12.5 g/dL
- Ht [5]: 37.3%
- Lym [5]: 74.4%
- MCHC [5]: 33.5%
- MCV [5]: 63.9 fL
- Mono [5]: 9.4%
- Neu [5]: 15.8%
- PT [5]: 11.7 s
- RBC [5]: 586.8 x10_4/ul
- Ret [5]: 8.1%
- WBC [5]: 200.4 x10_2/uL
- KIDNEY_L [5]: 1.1 g
- KIDNEY_R [5]: 1.1 g
- KIDNEY_TOTAL [5]: 2.2 g
- ALP [5]: 627.8 IU/L
- ALT [5]: 27 IU/L
- AST [5]: 55.2 IU/L
- BUN [5]: 20.4 mg/dL
- CRE [5]: 0.6 mg/dL
- Ca [5]: 10.2 mg/dL
- Cl [5]: 106 meq/L
- DBIL [5]: 0 mg/dL
- GLC [5]: 189.2 mg/dL
- IP [5]: 7 mg/dL
- K [5]: 5.1 meq/L
- RALB [5]: 3.3 g/dL
- TBIL [5]: 0.2 mg/dL
- TC [5]: 81.8 mg/dL
- TG [5]: 168.6 mg/dL
- TP [5]: 5.8 g/dL
- gamma-GTP [5]: 2.2 IU/L
- TERMINAL_BW [6]: 254.1 g
- TERMINAL_BW [7]: 296 g
- TERMINAL_BW [8]: 348.8 g
- APTT [6]: 17.1 s
- Bas [6]: 0%
- Eos [6]: 1%
- Fbg [6]: 250 mg/dL
- Hb [6]: 13.4 g/dL
- Ht [6]: 40.3%
- Lym [6]: 77%
- MCHC [6]: 33.4%
- MCV [6]: 63.9 fL
- Mono [6]: 4.6%
- Neu [6]: 17.6%
- PT [6]: 11.7 s
- RBC [6]: 631.8 x10_4/ul
- Ret [6]: 7.4%
- WBC [6]: 199.8 x10_2/uL
- APTT [7]: 17.5 s
- Bas [7]: 0%
- Eos [7]: 0.4%
- Fbg [7]: 257.2 mg/dL
- Hb [7]: 13.8 g/dL
- Ht [7]: 41.2%
- Lym [7]: 78.8%
- MCHC [7]: 33.4%
- MCV [7]: 59.6 fL
- Mono [7]: 4.4%
- Neu [7]: 16.2%
- RBC [7]: 692.2 x10_4/ul
- Ret [7]: 5.8%
- WBC [7]: 162.2 x10_2/uL
- APTT [8]: 15.6 s
- Bas [8]: 0%
- Eos [8]: 0.4%
- Fbg [8]: 273 mg/dL
- Hb [8]: 13.3 g/dL
- Ht [8]: 39.7%
- Lym [8]: 76%
- MCHC [8]: 33.4%
- MCV [8]: 58 fL
- Mono [8]: 3%
- Neu [8]: 20.4%
- RBC [8]: 684.8 x10_4/ul
- Ret [8]: 6.4%
- WBC [8]: 184.3 x10_2/uL
- KIDNEY_L [6]: 1.1 g
- KIDNEY_R [6]: 1.1 g
- KIDNEY_TOTAL [6]: 2.2 g
- KIDNEY_L [7]: 1.2 g
- KIDNEY_R [7]: 1.2 g
- KIDNEY_TOTAL [7]: 2.4 g
- KIDNEY_L [8]: 1.4 g
- KIDNEY_R [8]: 1.5 g
- KIDNEY_TOTAL [8]: 2.9 g
- ALP [6]: 763 IU/L
- ALT [6]: 32 IU/L
- AST [6]: 57.4 IU/L
- BUN [6]: 20.2 mg/dL
- CRE [6]: 0.6 mg/dL
- Ca [6]: 10.7 mg/dL
- Cl [6]: 105 meq/L
- DBIL [6]: 0 mg/dL
- GLC [6]: 201 mg/dL
- IP [6]: 8.4 mg/dL
- K [6]: 4.8 meq/L
- RALB [6]: 3.9 g/dL
- TBIL [6]: 0.3 mg/dL
- TC [6]: 75.4 mg/dL
- TG [6]: 113.8 mg/dL
- TP [6]: 6.6 g/dL
- gamma-GTP [6]: 2.8 IU/L
- ALP [7]: 719.2 IU/L
- ALT [7]: 30.4 IU/L
- AST [7]: 63 IU/L
- BUN [7]: 26.6 mg/dL
- CRE [7]: 0.6 mg/dL
- Ca [7]: 10.7 mg/dL
- Cl [7]: 106.2 meq/L
- DBIL [7]: 0.008 mg/dL
- GLC [7]: 184.6 mg/dL
- IP [7]: 8.4 mg/dL
- K [7]: 4.3 meq/L
- RALB [7]: 3.9 g/dL
- TBIL [7]: 0.4 mg/dL
- TC [7]: 69.6 mg/dL
- TG [7]: 147.6 mg/dL
- TP [7]: 6.4 g/dL
- gamma-GTP [7]: 1.2 IU/L
- ALP [8]: 413 IU/L
- ALT [8]: 28.2 IU/L
- AST [8]: 57.2 IU/L
- BUN [8]: 24.2 mg/dL
- CRE [8]: 0.6 mg/dL
- Ca [8]: 10.5 mg/dL
- Cl [8]: 106.8 meq/L
- DBIL [8]: 0.02 mg/dL
- GLC [8]: 174.2 mg/dL
- IP [8]: 7.4 mg/dL
- K [8]: 4.4 meq/L
- RALB [8]: 3.9 g/dL
- TBIL [8]: 0.3 mg/dL
- TC [8]: 72.2 mg/dL
- TG [8]: 166.2 mg/dL
- TP [8]: 6.1 g/dL
- gamma-GTP [8]: 1.8 IU/L
